In data set [1] the target is Acetylcholinesterase (Electrophorus electricus, UniProt O42275).
Description: Inhibition of Electrophorus electricus AchE using acetylthiocholine iodide as substrate preincubated for 10 mins measured after 15 mins of substrate addition by Ellman's method
For data set [2], the target named is T1, Amine oxidase [flavin-containing] A (Rattus norvegicus, UniProt P21396).
T1 sequence (P21396 whole entry): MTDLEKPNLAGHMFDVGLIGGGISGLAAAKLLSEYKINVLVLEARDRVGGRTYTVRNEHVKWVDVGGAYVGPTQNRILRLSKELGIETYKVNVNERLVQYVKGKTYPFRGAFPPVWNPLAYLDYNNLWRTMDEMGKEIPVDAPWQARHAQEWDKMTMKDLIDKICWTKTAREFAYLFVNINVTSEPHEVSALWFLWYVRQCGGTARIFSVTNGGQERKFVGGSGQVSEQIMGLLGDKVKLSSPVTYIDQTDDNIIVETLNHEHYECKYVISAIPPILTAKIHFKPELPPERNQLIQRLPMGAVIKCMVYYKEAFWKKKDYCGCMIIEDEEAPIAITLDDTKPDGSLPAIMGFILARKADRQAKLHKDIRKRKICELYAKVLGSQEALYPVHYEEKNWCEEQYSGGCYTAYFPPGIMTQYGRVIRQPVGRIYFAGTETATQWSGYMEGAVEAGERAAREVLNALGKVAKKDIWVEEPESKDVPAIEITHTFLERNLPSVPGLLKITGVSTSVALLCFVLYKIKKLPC
Description: Inhibition of rat liver mitochondrial MAO-A using [14C]-5-hydroxytryptamine after 30 mins by scintillation counting

Data set [3] has as its target T2, Amine oxidase [flavin-containing] B (Rattus norvegicus, UniProt P19643).
T2 sequence (P19643 whole entry): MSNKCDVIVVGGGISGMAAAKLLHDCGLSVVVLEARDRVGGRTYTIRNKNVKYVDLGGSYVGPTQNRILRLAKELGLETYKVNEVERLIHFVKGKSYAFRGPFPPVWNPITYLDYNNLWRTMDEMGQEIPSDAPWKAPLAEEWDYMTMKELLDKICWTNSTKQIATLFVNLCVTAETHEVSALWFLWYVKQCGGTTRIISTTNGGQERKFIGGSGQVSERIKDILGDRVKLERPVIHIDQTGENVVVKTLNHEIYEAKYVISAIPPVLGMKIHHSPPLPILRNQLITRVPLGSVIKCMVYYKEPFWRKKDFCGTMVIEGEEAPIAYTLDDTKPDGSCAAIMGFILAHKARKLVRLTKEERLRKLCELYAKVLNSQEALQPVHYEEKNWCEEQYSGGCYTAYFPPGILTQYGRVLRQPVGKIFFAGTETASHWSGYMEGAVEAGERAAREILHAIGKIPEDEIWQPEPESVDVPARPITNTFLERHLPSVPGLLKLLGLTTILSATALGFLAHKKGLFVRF
Description: Inhibition of rat liver mitochondrial MAO-B using [14C]-phenylethylamine after 30 mins by scintillation counting

Data set [4] has as its target T1, Amine oxidase [flavin-containing] A. Kind of data set: Irreversible inhibition of rat liver mitochondrial MAO-A using 5-hydroxytryptamine as substrate at 6 nM preincubated for 30 mins measured after three consecutive centrifugation. The settings on record: 0.006 µM.
For data set [5], the target named is T3, Acetylcholinesterase (Homo sapiens, UniProt P22303). As to the kind of experiment: Inhibition of cerebral human recombinant AchE expressed in HEK293 cells using acetylthiocholine iodide as substrate preincubated for 10 mins measured after 15 mins of substrate addition by Ellman's method. Background: In Ellman's method for cholinesterases, released thiocholine reacts with DTNB.
T3 sequence (P22303 whole entry): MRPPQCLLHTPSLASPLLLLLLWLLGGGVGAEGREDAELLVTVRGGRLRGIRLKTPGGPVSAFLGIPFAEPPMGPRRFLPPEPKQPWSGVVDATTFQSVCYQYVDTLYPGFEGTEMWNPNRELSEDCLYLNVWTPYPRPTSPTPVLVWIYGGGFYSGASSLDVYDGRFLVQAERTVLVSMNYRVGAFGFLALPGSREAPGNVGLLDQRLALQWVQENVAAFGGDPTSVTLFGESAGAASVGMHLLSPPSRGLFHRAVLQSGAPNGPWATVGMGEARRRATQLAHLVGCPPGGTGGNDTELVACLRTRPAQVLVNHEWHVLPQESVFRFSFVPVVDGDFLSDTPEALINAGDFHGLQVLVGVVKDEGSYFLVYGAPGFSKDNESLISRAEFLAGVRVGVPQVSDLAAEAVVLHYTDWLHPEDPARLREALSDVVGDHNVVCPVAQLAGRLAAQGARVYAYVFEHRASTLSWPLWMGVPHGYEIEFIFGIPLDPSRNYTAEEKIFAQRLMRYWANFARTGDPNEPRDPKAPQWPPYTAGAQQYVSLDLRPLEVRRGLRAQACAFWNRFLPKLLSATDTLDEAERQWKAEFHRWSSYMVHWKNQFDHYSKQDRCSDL

For data set [6], the target named is Cholinesterase (Homo sapiens, UniProt P06276). Kind of data set: Inhibition of human serum BuchE using butyrylthiocholine iodide as substrate preincubated for 10 mins measured after 15 mins of substrate addition by Ellman's method.
Chain of Cholinesterase (Homo sapiens, UniProt P06276) (P06276 whole entry): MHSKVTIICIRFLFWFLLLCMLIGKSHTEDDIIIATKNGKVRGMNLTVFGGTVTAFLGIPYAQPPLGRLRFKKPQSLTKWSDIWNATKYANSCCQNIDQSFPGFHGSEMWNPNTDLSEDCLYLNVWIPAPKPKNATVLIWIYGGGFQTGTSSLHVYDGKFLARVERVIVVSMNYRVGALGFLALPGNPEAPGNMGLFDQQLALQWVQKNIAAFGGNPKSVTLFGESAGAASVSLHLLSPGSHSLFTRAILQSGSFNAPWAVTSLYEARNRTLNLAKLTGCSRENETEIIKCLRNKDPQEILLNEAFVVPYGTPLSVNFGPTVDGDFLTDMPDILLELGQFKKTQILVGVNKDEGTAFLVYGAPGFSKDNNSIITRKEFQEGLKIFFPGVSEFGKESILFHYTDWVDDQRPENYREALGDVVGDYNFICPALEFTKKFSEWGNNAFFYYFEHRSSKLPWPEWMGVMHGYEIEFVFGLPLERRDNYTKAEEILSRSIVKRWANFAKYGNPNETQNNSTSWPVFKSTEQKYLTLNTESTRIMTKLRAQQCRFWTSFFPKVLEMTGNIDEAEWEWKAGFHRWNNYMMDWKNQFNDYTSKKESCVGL
In data set [7] the target is T1, Amine oxidase [flavin-containing] A. Kind of data set: Irreversible inhibition of rat liver mitochondrial MAO-A using 5-hydroxytryptamine as substrate at 6 nM preincubated for 30 mins measured after three consecutive washes with buffer. To be noted: 0.006 µM.
The target is the same in data set [8]. As to the kind of experiment: Time-dependent inhibition of rat liver mitochondrial MAO-A using 5-hydroxytryptamine at 6 nM by scintillation counting. To be noted: 0.006 µM.
The target of data set [9] is T2, Amine oxidase [flavin-containing] B. Kind of data set: Reversible inhibition of rat liver mitochondrial MAO-B using phenylethylamine assessed as recovered enzyme activity at 45 nM preincubated for 30 mins measured after three consecutive washes with buffer. Further details: scale not given: the % may be the effect or the level left; call rule not given here. The settings on record: read-out: Activity.

The target is the same in data set [10]. As to the kind of experiment: Time-dependent inhibition of rat liver mitochondrial MAO-B using phenylethylamine at 45 nM. To be noted: 0.045 µM.
Data set [11] addresses T1, Amine oxidase [flavin-containing] A. Kind of data set: Irreversible inhibition of rat liver mitochondrial MAO-A using 5-hydroxytriptamine as substrate assessed as substrate consumption at 10 nM measured up to 420 mins. To be noted: 7 h, 0.01 µM.
The target of data set [12] is T2, Amine oxidase [flavin-containing] B. Kind of data set: Irreversible inhibition of rat liver mitochondrial MAO-B using phenylethylamine as substrate assessed as substrate consumption at 100 nM measured up to 420 mins. To be noted: 7 h, 0.1 µM.
For data set [13] the target is unchanged. As to the kind of experiment: Non-competitive inhibition of rat liver mitochondrial MAO-B using phenylethylamine as substrate by Line-Weaver Burk plot analysis.
The target in data set [14] is T1, Amine oxidase [flavin-containing] A. Kind of data set: Irreversible inhibition of rat liver mitochondrial MAO-A using 5-hydroxytriptamine as substrate assessed as substrate consumption at 10 nM preincubated for 30 mins measured up to 420 mins. The settings on record: 7 h, 0.01 µM.
Data set [15] concerns the target T2, Amine oxidase [flavin-containing] B. As to the kind of experiment: Reversible inhibition of rat liver mitochondrial MAO-B using phenylethylamine as substrate assessed as substrate consumption at 100 nM preincubated for 30 mins measured up to 420 mins. To be noted: 7 h, 0.1 µM.
In data set [16] the target is T3, Acetylcholinesterase. The settings on record: 100 uM.
Description: Inhibition of human AChE-induced amyloid beta (1 to 40) aggregation at 100 uM measured every 10 mins for 10 hrs by thioflavin T-based fluorometric analysis
The target in data set [17] is Cholinesterase (Equus caballus, UniProt P81908).
Chain of Cholinesterase (Equus caballus, UniProt P81908) (P81908 whole entry): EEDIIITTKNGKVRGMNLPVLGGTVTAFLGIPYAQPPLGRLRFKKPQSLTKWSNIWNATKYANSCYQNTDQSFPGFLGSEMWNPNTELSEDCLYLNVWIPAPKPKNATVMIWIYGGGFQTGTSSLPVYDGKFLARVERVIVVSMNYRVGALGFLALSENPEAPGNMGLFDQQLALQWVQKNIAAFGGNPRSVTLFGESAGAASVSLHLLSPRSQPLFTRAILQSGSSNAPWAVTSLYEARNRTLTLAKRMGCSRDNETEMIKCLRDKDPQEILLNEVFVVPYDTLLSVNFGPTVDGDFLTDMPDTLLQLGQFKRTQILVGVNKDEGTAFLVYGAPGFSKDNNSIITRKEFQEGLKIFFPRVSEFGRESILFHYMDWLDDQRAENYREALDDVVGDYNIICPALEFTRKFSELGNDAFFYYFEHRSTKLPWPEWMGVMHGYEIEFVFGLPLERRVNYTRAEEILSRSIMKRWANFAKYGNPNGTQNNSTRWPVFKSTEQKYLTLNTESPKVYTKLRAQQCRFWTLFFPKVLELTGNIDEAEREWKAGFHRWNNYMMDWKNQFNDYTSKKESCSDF
Description: Inhibition of equine serum BuchE using butyrylthiocholine iodide as substrate preincubated for 10 mins measured after 15 mins of substrate addition by Ellman's method

Chain of Acetylcholinesterase (Electrophorus electricus, UniProt O42275) (O42275 whole entry): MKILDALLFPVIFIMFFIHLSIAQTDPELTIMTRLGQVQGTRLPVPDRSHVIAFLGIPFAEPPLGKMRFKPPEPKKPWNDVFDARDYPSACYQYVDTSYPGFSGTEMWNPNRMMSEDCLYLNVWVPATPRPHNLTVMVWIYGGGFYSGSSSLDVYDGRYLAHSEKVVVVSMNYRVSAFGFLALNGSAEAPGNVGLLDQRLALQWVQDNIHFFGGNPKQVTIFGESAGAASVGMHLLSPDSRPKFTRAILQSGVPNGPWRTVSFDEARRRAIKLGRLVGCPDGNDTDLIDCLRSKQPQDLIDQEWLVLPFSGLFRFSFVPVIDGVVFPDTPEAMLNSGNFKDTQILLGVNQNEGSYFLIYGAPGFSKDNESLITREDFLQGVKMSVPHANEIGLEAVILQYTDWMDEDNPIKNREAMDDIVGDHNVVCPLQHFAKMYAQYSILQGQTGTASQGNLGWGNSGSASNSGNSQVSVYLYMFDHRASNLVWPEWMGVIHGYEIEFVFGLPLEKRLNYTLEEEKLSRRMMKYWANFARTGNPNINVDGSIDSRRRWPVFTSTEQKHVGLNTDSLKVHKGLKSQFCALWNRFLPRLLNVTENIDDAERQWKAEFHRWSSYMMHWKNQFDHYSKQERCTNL

On to `C#CCN(C)Cc1cc2cc(OCCCN3CCN(Cc4ccccc4)CC3)ccc2n1C`, for which the half-inhibitory concentration (IC50) – broadly, the concentration that inhibits the measured activity by half – at Acetylcholinesterase [1] was above 100000 nM; in data set [2], 31 nM; in data set [3] it was 1600 nM.

Turning to `C#CCN(C)Cc1cc2cc(OCCCC3CCN(Cc4ccccc4)CC3)ccc2n1C`, the “inhibition (INH)” value in [4], in [7], in data set [11], in data set [12], in data set [14] and in data set [15] was “Active” in each case. In addition, the results for the concentration for half-maximal inhibition (IC50) on Acetylcholinesterase [5] and against Cholinesterase [6] were 380 nM and 1700 nM, respectively. Also, the TDI entry in data set [8] and in data set [10] was “Active” in each case. Besides, the activity at 0.045 µM in data set [9] amounted to 80.5%. The inhibition constant Ki (in general, a dissociation constant, usually derived from enzyme kinetics or from competition with a known ligand) in [13] is 11 nM. Besides, the inhibition – broadly, the change of the read-out against control, counted positive when it falls – at Acetylcholinesterase [16] turned out to be 32.4%.

Take `C#CCN(C)Cc1cc2cc(OCc3ccccc3)ccc2n1C`: the half-maximal inhibitory concentration (IC50) against Acetylcholinesterase [1] and against Cholinesterase [17] was above 100000 nM each time.

In data set [3], `C#CCN(C)Cc1cc2cc(OCCCN3CCC(Cc4ccccc4)CC3)ccc2n1C` gave an IC50 of 11000 nM.

Consider `C#CCN(C)Cc1cc2cc(OCCN3CCC(Cc4ccccc4)CC3)ccc2n1C`, for which the IC50 against Acetylcholinesterase [1] was above 100000 nM; in data set [2], 140 nM; in data set [3], 1400 nM.

Consider `C#CCN(C)Cc1cc2cc(OCCCCC3CCN(Cc4ccccc4)CC3)ccc2n1C`, for which the half-maximal inhibitory concentration (IC50) in [2] turned out to be 10 nM; in data set [3], 2700 nM.

Values taken from ChEMBL document CHEMBL1926501 (J Med Chem, 2011).
